US10717968B2, “Polymerases for nucleotide analogue incorporation” (Pacific Biosciences of California, Inc., priority 2005, dated 2020)

What was measured:
Format in all cases: biochemical
[1] = tested on: natural (native) nucleotides; assay: Initial characterization: specific activity with natural (native) nucleotides
Procedure: The recombinant polymerase is initially evaluated on the quality of the protein preparation and basic catalytic activity. The polymerase's activity is analyzed with natural (native) nucleotides, and its specific activity (units/mg) is determined. Only catalytically competent mutants are selected for the next steps.

dTTP, dATP, dGTP = assay: Assay with three native nucleotides (dGTP, dTTP and dATP); conditions: three native nucleotides at 20 μM; circular template, no G residues
Procedure: (§1) The Φ29 DNA polymerase (parental enzyme or mutant) was preincubated with DNA template (72 nucleotide circular DNA including mostly repetitive sequence AGTC) with annealed DNA primer. The preincubation mix includes three native nucleotides (dTTP, dATP and dGTP) and a terminal labeled nucleotide analogue (A488dC4P or A568dC4P) at 10 μM concentration. After a short preincubation, the reaction was started with MnCl2. The reaction was stopped with EDTA, and the products were separated using agarose gel electrophoresis and stained with SYBR Gold (Invitrogen). The average length of the DNA generated with DNA polymerase was determined and used to estimate the polymerization rate. See, e.g., Table 2 Columns G and H.
The Φ29 DNA polymerase (parental enzyme or mutant) was preincubated with DNA template (circular DNA including mostly repetitive sequence CAT, no G residues) with annealed DNA primer; the preincubation mix includes three native nucleotides (dTTP, dATP and dGTP). All subsequent steps were basically as described above in the section entitled “Assay with a single analogue at low concentration (10 μM) and three native nucleotides.” See, e.g., Table 2 Column B.

A488dC4P [2] = assay: Nucleotide analogue concentration dependence of the polymerization rate, A488dC4P; conditions: for A488dC4P, kel / Km: circular AGTC template, dTTP, dATP, dGTP 20 μM each; for Km as % of the Km of N62D Φ29 for A488dC4P: relative to N62D Φ29, from Table 2
Procedure: (§2) The most promising polymerase mutants are characterized by determination of the polymerization rate and Km for A488dC4P and A568dC4P and a subset of natural nucleotides (dATP, dGTP and dTTP), using a circular template (AGTC). Velocity is measured at several different concentrations of the analogs, A488dC4P (a representative good substrate) and A568dC4P (a representative less preferred substrate).
(§3) The Φ29 DNA polymerase (parental enzyme or mutant) was preincubated with a DNA template (72 nucleotide circular DNA including mostly repetitive sequence AGTC) with annealed DNA primer. The preincubation mix includes also three native nucleotides (dTTP, dATP and dGTP 20 μM each) and various concentrations of the terminally labeled analogue (A488dC4P or A568dC4P). All subsequent steps were basically as described above in the section entitled “Assay with a single analogue at low concentration (10 μM) and three native nucleotides.” An average length of the DNA products generated with DNA polymerase at an individual analogue concentration was determined, and the results were fitted with the equation k=kel*[S]*(Kd+[S])^−1 where k is the observed polymerization rate, kel is the polymerization rate at saturating substrate concentration (kel measures incorporation of multiple residues), and [S] is substrate concentration. See, e.g., Table 2 Columns C, D, E, and F.

A568dC4P [3] = assay: Nucleotide analogue concentration dependence of the polymerization rate, A568dC4P; conditions: for A568dC4P, kel / Km: circular AGTC template, dTTP, dATP, dGTP 20 μM each; for Km as % of the Km of N62D Φ29 for A568dC4P: relative to N62D Φ29, from Table 2
Procedure: as §2, §3

A488dC4P [4] = assay: Assay with a single analogue at low concentration (10 μM) and three native nucleotides, A488dC4P; conditions: single analogue at 10 μM and three native nucleotides
Procedure: as §1

A568dC4P [5] = assay: Assay with a single analogue at low concentration (10 μM) and three native nucleotides, A568dC4P; conditions: single analogue at 10 μM and three native nucleotides
Procedure: as §1

[6] = tested on: A488dA4P, A633dC4P, A546dG4P, A594dT4P; assay: Assay with four terminally labeled nucleotide analogs; conditions: four terminally labeled analogs all at 10 μM
Procedure: Polymerization rate (bases/min) with four analogues at 10 μM (A488dA4P, A633dC4P, A546dG4P and A594dT4P) and circular template (AGTC, a 72mer circular template largely consisting of a repeating AGTC motif) is determined.
The procedure is basically as described above in the section entitled “Assay with a single analogue at low concentration (10 μM) and three native nucleotides,” with the exception that in this assay all nucleotides are terminally labeled (A488dA4P, A633dC4P, A546dG4P, A594dT4P all at 10 μM). See, e.g., Table 2 Column I.

[7] = tested on: DNA template (72 nucleotide circular DNA) with annealed DNA primer; assay: Processivity assay; conditions: dNTP, MnCl2, heparin trap, 20 min; 1.0 minus Poff
Excerpt: The processivity (dissociation/kb) of the polymerase is estimated in a primer extension reaction performed in the presence of “Trap” (unlabeled competitor DNA or heparin). The processivity assay is designed to select mutants that retain the capability to synthesize a long DNA product in a continuous polymerization run (without polymerization reinitiation) with natural nucleotides. Mutants with a significant decrease in processivity are not selected for the next step.
The Φ29 DNA polymerase (parental enzyme or mutant) was preincubated with DNA template (72 nucleotide circular DNA including mostly repetitive sequence AGTC) with annealed DNA primer. After a short preincubation, the reaction was started with a starting mix including MnCl2, dNTP and heparin. Including the heparin in the reaction prevents polymerization from reinitiating after the polymerase dissociates from the template/primer, so that all generated DNA products are a result of continuous polymerization runs. After 20 min incubation, the reaction was stopped with EDTA and the products were separated using agarose gel electrophoresis and stained with SYBR Gold (Invitrogen). The DNA products were analyzed basically as described in Bibillo A, Eickbush T H. J Biol Chem. 2002 Sep. 20; 277(38):34836-45, Epub 2002 Jul. 5. The results were fitted with single exponential equation A*exp(−Poff*kb) where A is amplitude, Poff is the probability of premature polymerase dissociation, and kb is DNA length (1000 nucleotides). The probability of chain elongation (processivity) can be readily calculated by subtracting the Poff value from 1.0. See, e.g., Table 2 Column J.

Alexa633-O-dC4P = assay: Km and Vmax versus analogue Alexa633-O-dC4P; conditions: Alexa633-O-dC4P (A633dC4P)
Procedure: (§4) Km and Vmax were determined for exemplary recombinant Phi29 polymerases and various nucleotide analogues.

Alexa555-C2-dT4P = assay: Km and Vmax versus analogue Alexa555-C2-dT4P
Procedure: as §4

A633dC4P = assay: Screening: rate with A633dC4P and dA, dG, dTTP; conditions: for Rate High: 25 μM A633dC4P with 20 μM dA; for Ratio (Low/High): (rate at 5 μM A633dC4P)/(rate at 25 μM A633dC4P), each with 20 μM dA, 1 mM MnCl2, higher ratio = lower Km
[8] = tested on: Alexa488-O-dA4P, FAM-Alexa532-O-dG4P, FAM-Alexa594-O-dT4P, Alexa633-O-dC4P; assay: Screening: rate with set of four nucleotide analogues; conditions: four analogues at 10 μM each, 1 mM MnCl2
Alexa532-O-dG4P = assay: Km and Vmax versus analogue Alexa532-O-dG4P
Procedure: as §4

A594-dT4P = assay: FRET stopped flow assay, rates of binding and product release; conditions: nucleotide analogue A594-dT4P
Procedure: Rates of binding and product release were determined for exemplary recombinant Phi29 polymerases with nucleotide analogue A594-dT4P using a FRET stopped flow assay as schematically illustrated in FIG. 7A. Results are depicted graphically in FIGS. 7B-D for Phi29 N62D (FIG. 7B), N62D:E375Y (FIG. 7C), and N62D:E375W (FIG. 7D).

Alexa568-dA4P = assay: FRET stopped flow assay, branching rate; conditions: dideoxy-terminated primer, native dATP trap
Procedure: Relative branching rate (dissociation of the analogue without incorporation, i.e., substrate dissociation) was also determined for exemplary recombinant Phi29 polymerases with nucleotide analogue Alexa568-dA4P (also called A568-dA4P), using a FRET stopped flow assay as schematically illustrated in FIG. 8A. In this technique, a template with a FRET donor dye compatible for FRET with the corresponding dye on the nucleotide analogue is employed. The primer has a dideoxy-termination at the 3′ end to prevent incorporation. The analogue is pre-mixed with the enzyme-template-dideoxy primer complex. In the stopped flow apparatus, this preformed complex is rapidly mixed with the corresponding native nucleotide (native dATP, in this example) in excess which serves as a “trap” to prevent rebinding of the analogue after it dissociates. The increase in donor dye fluorescence is monitored as a means of monitoring the dissociation/branching rate of the analogue.

Row | Product Release Rate (A594-dT4P) | Substance | Specific Activity [1] | dTTP, dATP, dGTP (no G fork) V at 20 μM (dTTP, dATP, dGTP) | A488dC4P, kel (A488dC4P [2]) | Km (A488dC4P [2]) | Km as % of the Km of N62D Φ29 for A488dC4P (A488dC4P [2]) | A568dC4P, kel (A568dC4P [3]) | Km (A568dC4P [3]) | Km as % of the Km of N62D Φ29 for A568dC4P (A568dC4P [3]) | A488dC4P, V at 10 μM (A488dC4P [4]) | A568dC4P, V at 10 μM (A568dC4P [5]) | A488dA4P, A633dC4P, A546dG4P, A594dT4P, V at 10 μM [6] | Processivity [7] | Km (Alexa633-O-dC4P) | Km (Alexa555-C2-dT4P) | Rate High (A633dC4P) | Ratio (Low/High) (A633dC4P) | Hz Rate [8] | Km (Alexa532-O-dG4P) | Branching Rate (Alexa568-dA4P) | other results
1 |  | His-E375H-N62D: Phi 29 polymerase with E375H and N62D mutations (SEQ ID NOs:4, 25) | 10,945,000 units/mg | 780 | 950 bp/min | 8 µM | about 40% | 930 | 11 µM | about 15% | 411 | 366 | 123 | 0.9510 kb^−1 | 17 µM | 15 µM | 510.1 | 0.445 | 9.4 Hz |  |  | 
2 |  | His-E375S-N62D: Phi 29 polymerase with E375S and N62D mutations (SEQ ID NOs:5, 26) | 10,961,000 units/mg | 940 | 1190 bp/min | 15 µM | about 75% | 1300 | 28 µM | about 38% | 420 | 332 | 74 | 0.9815 kb^−1 | 16.5 µM |  | 528.4 | 0.335 | 5.9 Hz | 40 µM |  | 
3 | 76 s⁻¹ | N62D: E375W: Phi29 polymerase with E375W and N62D mutations |  |  |  |  |  |  |  |  |  |  |  |  | 1.8 µM | 5 µM | 699.4 | 0.677 | 19.1 Hz | 16 µM | 43 s⁻¹ | rates of binding and product release compared with the parent enzyme (A594-dT4P): increased rates of binding and product release
4 | 117 s⁻¹ | N62D: E375Y: Phi29 polymerase with E375Y and N62D mutations |  |  |  |  |  |  |  |  |  |  |  |  | 2.5 µM | 6.6 µM | 498.5 | 0.694 | 12.1 Hz | 18 µM | 31 s⁻¹ | rates of binding and product release compared with the parent enzyme (A594-dT4P): increased rates of binding and product release
5 | 55 s⁻¹ | N62D: N62D Phi29 DNA polymerase, parent enzyme in Tables 4, 6 and 7; tag not stated [reference compound] |  |  |  |  |  |  |  |  |  |  |  |  | 23 µM | 20 µM |  |  |  | 68 µM | 90 s⁻¹ | 
